Source: EP0354693A1, “Therapeutic agents” (The Boots Company PLC, priority 1988, dated 1990)

Test system: BALB/c mice
Assay: cutaneous hypersensitivity test (CH test), oxazolone-induced ear swelling
Assay type: in vivo
Details: Mus musculus, ip; intraperitoneal, at sensitisation and every 24 hours for a further 7 days; lowest dose used giving 20% or greater reduction in ear swelling (p <0.05) in two out of three CH tests; read-out: Minimum Effective Dose
Method: This test was carried out in the following way.
Female BALB/c mice, weight range 16-24 g, were used in groups of eight. The abdomen of each mouse was shaved and 20 µl of a solution of a sensitising agent, 5% w/v 4-ethoxymethylene-2-phenyl-2-oxazolin-5-one (oxazolone) in acetone:ethanol (1:1 by volume), was applied to the shaved area. Immediately after sensitisation, the test compound in one of the dosages listed below was injected intraperitoneally as a suspension in 1.5% v/v sorbitan esters, under the trade name Tween 80, in sterile water (100µl). 100 µl of the same suspension was injected likewise every 24 hours for a further 7 days. The dosages used were selected from the following values: 50, 30, 10, 3, 1, 0.3, 0.1, 0.03 or 0.01 mg/kg.
Two groups of eight BALB/c mice were used as a control simultaneously with each test in a similar manner to that described above except that no test compound was included in the daily injections.
On the seventh day after sensitisation, 10 µl of a solution of 1% w/v oxazolone in acetone: olive oil (either 1:1 or 3:1 by volume) was applied to one ear (the challenged ear) of each of the test mice and the control mice. After 24 hours the thickness of the challenged ear and the thickness of the non-challenged ear of the same animal were measured with an engineer's screw gauge micrometer. The difference in thickness between the challenged ear and the non-challenged ear in each animal is a measure of the response of that animal to oxazolone. A comparison between the response of mice treated with the test compound and mice treated with the control indicates the effectiveness of the test compound as an immunomodulatory agent. The compounds were considered to be active at a particular dose if a 20% or greater reduction in ear swelling, which was statistically significant (p <0.05) according to Dunnett's test, between treated and control groups was obtained in two out of three CH tests, (or, where more than three tests have been carried out, a majority of the tests) at that dose (see for example Int. Arch. Allergy, 38, p246-259 (1970)).
Each of the compounds of formula I illustrated in Table A below was active at 50 mg/kg in two out of three tests at 50 mg/kg unless indicated otherwise (see Notes following the Table). The minimum effective dose (ie the lowest dose of those used at which the compound is active as defined above) for each compound is given in Table A. The Example (Ex) number or numbers listed adjacent to each compound indicates the process or processes illustrating the preparation of that compound in the Examples.

| Compound | minimal effective dose [mg/kg] |
| --- | --- |
| Cc1oc2ccccc2c2nn(-c3ccc(Cl)c(Cl)c3)c(=O)c1-2 [Example 36, 2-(3,4-dichlorophenyl)-4-methyl[1]-benzopyrano[4,3-c]pyrazol-3(2H)-one] | 0.3 |
| Cc1oc2ccccc2c2nn(-c3ccc(F)cc3)c(=O)c1-2 [Example 37, 2-(4-fluorophenyl)-4-methyl[1]benzo-pyrano[4,3-c]pyrazol-3(2H)-one] | 1 |
| Cc1oc2ccccc2c2nn(-c3cccc(Cl)c3)c(=O)c1-2 [Example 38, 2-(3-chlorophenyl)-4-methyl[1]benzo-pyrano[4,3-c]pyrazol-3(2H)-one] | 3 |
| COc1ccc(-n2nc3c4ccccc4oc(C)c-3c2=O)cc1 [Example 39, 2-(4-methoxyphenyl)-4-methyl[1]benzo-pyrano[4,3-c]pyrazol-3(2H)-one] | 50 |
| CCc1oc2ccccc2c2nn(-c3ccc(Cl)cc3)c(=O)c1-2 [Example 40, 2-(4-chlorophenyl)-4-ethyl[1]benzo-pyrano[4,3-c]pyrazol-3(2H)-one] | 50 |
| CCOC(=O)Cc1oc2ccccc2c2nn(-c3ccc(Cl)cc3)c(=O)c1-2 [Example 41, ethyl 2-(4-chlorophenyl)-3-oxo-2,3-dihydro[1]benzopyrano[4,3-c]pyrazole-4-acetate] | 3 |
| Cc1oc2ccccc2c2nn(-c3ccccc3)c(=O)c1-2 [Example 42, 4-methyl-2-phenyl[1]benzopyrano-[4,3-c]pyrazol-3(2H)-one] | 50 |
| Cc1ccc(-n2nc3c4ccccc4oc(C)c-3c2=O)cc1 [Example 43, 4-methyl-2-(4-methylphenyl)[1]benzo-pyrano[4,3-c]pyrazol-3(2H)-one] | 10 |
| Cc1oc2ccccc2c2nn(-c3ccc(Br)cc3)c(=O)c1-2 [Example 44, 2-(4-bromophenyl)-4-methyl[1]benzo-pyrano[4,3-c]pyrazol-3(2H)-one] | 1 |
| Cc1oc2ccccc2c2nn(-c3ccc(F)c(Cl)c3)c(=O)c1-2 [Example 45, 2-(3-chloro-4-fluorophenyl)-4-methyl-[1]benzopyrano[4,3-c]pyrazol-3(2H)-one] | 0.3 |
| Cc1ccc(-n2nc3c4ccccc4oc(C)c-3c2=O)cc1Cl [Example 46, 2-(3-chloro-4-methylphenyl)-4-methyl-[1]benzopyrano[4,3-c]pyrazol-3(2H)-one] | 3 |
| Cc1oc2ccccc2c2nn(-c3ccc(C(F)(F)F)cc3)c(=O)c1-2 [Example 47, 4-methyl-2-(4-trifluoromethylphenyl)-[1]benzopyrano[4,3-c]pyrazol-3(2H)-one] | 1 |
| Cc1oc2cc(F)ccc2c2nn(-c3ccc(Cl)cc3)c(=O)c1-2 [Example 48, 2-(4-chlorophenyl)-7-fluoro-4-methyl-[1]benzopyrano[4,3-c]pyrazol-3(2H)-one] | 50 |
| Cc1oc2ccc(Cl)cc2c2nn(-c3ccc(Cl)cc3)c(=O)c1-2 [Example 49, 8-chloro-2-(4-chlorophenyl)-4-methyl-[1]benzopyrano[4,3-c]pyrazol-3(2H)-one] | 50 |
| Cc1ccc2oc(C)c3c(=O)n(-c4ccc(Cl)cc4)nc-3c2c1 [Example 50, 2-(4-chlorophenyl)-4,8-dimethyl[1]-benzopyrano[4,3-c]pyrazol-3(2H)-one] | 50 |
| COc1cccc2oc(C)c3c(=O)n(-c4ccc(Cl)cc4)nc-3c12 [Example 51, 2-(4-chlorophenyl)-9-methoxy-4-methyl-[1]benzopyrano[4,3-c]pyrazol-3(2H)-one] | 50 |
| Cc1oc2cccc(C)c2c2nn(-c3ccc(Cl)cc3)c(=O)c1-2 [Example 52, 2-(4-chlorophenyl)-4,9-dimethyl[1]-benzopyrano[4,3-c]pyrazol-3(2H)-one] | 50 |
| CCOC(=O)Cc1oc2ccccc2c2nn(-c3ccc(F)cc3)c(=O)c1-2 [Example 53, ethyl 2-(4-fluorophenyl)-3-oxo-2,3-dihydro[1]benzopyrano[4,3-c]pyrazole-4-acetate] | 3 |
| Cc1oc2ccc(F)cc2c2nn(-c3ccc(Cl)cc3)c(=O)c1-2 [Example 54, 2-(4-chlorophenyl)-8-fluoro-4-methyl-[1]benzopyrano[4,3-c]pyrazol-3(2H)-one] | 0.1 |
| Cc1oc2cc(Cl)ccc2c2nn(-c3ccc(Cl)cc3)c(=O)c1-2 [Example 55, 7-chloro-2-(4-chlorophenyl)-4-methyl-[1]benzopyrano[4,3-c]pyrazol-3(2H)-one] | 50 |
| Cc1oc2ccc(O)cc2c2nn(-c3ccc(Cl)cc3)c(=O)c1-2 [Example 56, 2-(4-chlorophenyl)-8-hydroxy-4-methyl-[1]benzopyrano[4,3-c]pyrazol-3(2H)-one] | 50 |
